Results published in publication PMC11308363, “Bioinformatic, Enzymatic, and Structural Characterization of Trichuris suis Hexosaminidase HEX-2” (Biochemistry, 2024).

Columns and labels:
T. suis HEX-2 = target: T1, T. suis HEX-2 (Trichuris suis, UniProt A0A085NCI8); assay: pNP-β-GalNAc hydrolysis assay with purified enzyme, Ki fitted in Prism; assay type: biochemical
T1 construct: gene M514_07548; recombinant C-terminally His-tagged, secreted from Pichia; residues 85–620 (long) or 135–620 (short) of the predicted protein

[1] = substrate: CC(=O)N[C@H]1[C@H](Oc2ccc([N+](=O)[O-])cc2)O[C@H](CO)[C@H](O)[C@@H]1O; assay: Michaelis–Menten kinetics, absorbance assay with purified enzyme (apparent Km); assay type: biochemical, Trichuris suis

Molecule | Ki (T. suis HEX-2) | Km [1]
GalNAc-isofagomine | 600 nM | –
T. suis HEX-2 (Trichuris suis) (protein, recombinant C-terminally His-tagged, secreted from Pichia; residues 85–620 (long) or 135–620 (short) of the predicted protein) SNVFIPKRRIVHLDLKGAAPKPQHFRAFFEYFVRIGATGILIEWEDMFPYEGRLSDLRNGDAYSADDVRMILSTADQLRLEVIPLVQTIGHLEWLLKTHKFYSFRENPRNPQSVCVSNAEAVDLVLHLVDQVMAFHKDYGQFVHIGADEVYQYGECSRCVARMNKENLRREDLLLRHIVNVSKHVKTKYGKNVLMWHDMIANIDASLAEKYDLKNLVEPVLWNYAEDLEAFLPMGIWETFSAMVPYMWGSSAFKGADSPTRYHSNVKHYLENHISWIKQMSTASEKFREFRGLIFTGWQRYDHFAVLCEFLPIGIPSLTVNMLTIRNGRFDASVNDQAISIMQCVTGSDVKGDLYGCRFPGSDIYHHVQLLHEKKGEIEKLLLQQSVQGWLSNIAIDYNMSSPWYMNLIVPDLMTYKNQMIELSLNIRQAMLEMFYENAVDEFLFTYVDPVINHLQRLLDRATAIQRRDEFPVRPFPIKRTIDTTR | – | 900 µM
